Values of other authors as cited in patent US20070254941A1, “Subtantially pure ropinirole hydrochloride, polymorphic form of ropinirole and process for their preparation” (Glenmark Pharmaceuticals Limited, priority 2006, published 2007).
Counter-ions that a name gives are not always drawn.

Experiments:
D2 dopamine receptor = D2 dopamine receptor (Homo sapiens, UniProt P14416)
D3 dopamine receptor [1] = target: T1, D3 dopamine receptor (Homo sapiens, UniProt P35462)
D3 dopamine receptor [2] = target: T1, D3 dopamine receptor; conditions: D3 versus D2 or D4

T1 sequence (P35462 whole entry): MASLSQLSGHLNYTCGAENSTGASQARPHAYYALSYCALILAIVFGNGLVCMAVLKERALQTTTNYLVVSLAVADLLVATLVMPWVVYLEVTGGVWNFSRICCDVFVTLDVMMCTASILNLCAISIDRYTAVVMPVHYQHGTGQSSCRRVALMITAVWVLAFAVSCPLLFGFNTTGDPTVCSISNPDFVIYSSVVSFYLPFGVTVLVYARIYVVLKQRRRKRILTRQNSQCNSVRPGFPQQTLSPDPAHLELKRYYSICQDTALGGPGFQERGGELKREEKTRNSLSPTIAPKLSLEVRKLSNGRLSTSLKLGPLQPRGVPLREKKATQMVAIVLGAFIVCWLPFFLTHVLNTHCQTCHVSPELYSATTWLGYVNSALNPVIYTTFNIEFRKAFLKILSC
Sequence of D2 dopamine receptor (P14416 whole entry): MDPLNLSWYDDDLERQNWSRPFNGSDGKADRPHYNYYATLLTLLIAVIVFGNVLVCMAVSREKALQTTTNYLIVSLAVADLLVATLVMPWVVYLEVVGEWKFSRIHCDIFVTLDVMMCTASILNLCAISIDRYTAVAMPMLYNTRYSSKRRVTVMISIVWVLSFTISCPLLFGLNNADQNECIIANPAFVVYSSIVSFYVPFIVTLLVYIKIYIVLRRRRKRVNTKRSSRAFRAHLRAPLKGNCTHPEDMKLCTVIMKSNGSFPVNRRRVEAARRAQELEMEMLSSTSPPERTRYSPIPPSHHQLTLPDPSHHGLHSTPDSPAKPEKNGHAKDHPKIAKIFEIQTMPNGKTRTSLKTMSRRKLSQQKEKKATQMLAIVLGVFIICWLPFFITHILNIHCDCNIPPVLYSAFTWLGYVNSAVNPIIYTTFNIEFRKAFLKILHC

## CCCN(CCC)CCc1cccc2c1CC(=O)N2 [Ropinirole hydrochloride]
D2 dopamine receptor
  intrinsic activity at D2 dopamine receptor subtype: full intrinsic activity
D3 dopamine receptor [1]
  intrinsic activity at D3 dopamine receptor subtype: full intrinsic activity
D3 dopamine receptor [2]
  affinity for D3 relative to D2 or D4 receptor subtypes: higher affinity to D3 than to D2 or D4
